The results in this text go back to patent US9938274B1, “Naphthyridine compounds, medical combinations and use thereof” (Nanjing Natinefy Pharmatech Co., Ltd., priority 2016, dated 2018).

In one data set the target is Axl kinase (Homo sapiens (Human), UniProt P30530). As to the kind of experiment: HTRF KinEASE TK kinase inhibition assay, Axl. Format: biochemical.
A further data set addresses RET (Homo sapiens (Human), UniProt P07949). As to the kind of experiment: HTRF KinEASE TK kinase inhibition assay, RET. Format: biochemical. Here is the method: A study on inhibition of protein kinases activity at in vitro biochemical level
Material and method: kinases such as c-Met, VEGFR-2, Axl and RET, obtained from Invitrogen; HTRF KinEASE; TK kit (Cisbio Company); 384-well plate (Greiner Company); ATP (Sigma Company), MgCl2 (Sigma Company); PHERAstar FS multifunctional plate reader (BMG Company); conventional centrifuge (StaiteXiangyi Company); incubator (Binder Company).
Preparation of working solution of the compounds: Before test, aliquots of the compounds are removed from the refrigerator, and diluted with pure DMSO to 50× of the level needed; and then the compounds are diluted with deionized water to 4× of the level needed;
Preparation of 1.33× enzymatic buffer: 5× enzymatic buffer (from HTRF kit) is diluted to 1.33× with deionized water, and appropriate components of the final level 1.33× are added: 1.33 mmol/L dithiothreitol (DTT) and 1.33 mmol/L MgCl2;
Preparation of kinase working solution: Met is diluted to 2× final level required, 0.2 ng/μL, with 1.33× enzymatic buffer; […]
Reading HTRF signal: PHERAstar FS is used to read the testing signal, and its setting is as following:
For the original data read from each well, ratio=665 nm/620 nm; […]

A short description of data set [1]: In vivo pharmacokinetic study in rats. On the procedure:
An In Vivo Pharmacokinetic Study in Rats
For intravenous injection, rats are given a dose of 1 mg/kg. For oral administration, rats are given a dose of 5 mg/kg. […] The whole blood is centrifuged at 8000 rpm for 5 min to collect plasma, which is then transferred to 96-well pallet, and stored at −20° C. till LC-MS/MS testing.
Pharmacokinetic parameters among rats after medication are estimated using the non-compartment model of software WinNonlin.
The peak concentration, Cmax: the actual measurements are used;

In another data set the test system is U87MG tumor. As to the kind of experiment: Tumor xenograft model, U87MG, tumor growth inhibition. The settings on record: for Tumor growth inhibition rate, % TGI: day 22. Format: in vivo, nude mice (BALB/cA nu/nu).
A further data set concerns the target c-Met (h) (Homo sapiens (Human), UniProt P08581). As to the kind of experiment: HTRF KinEASE TK kinase inhibition assay, c-Met. Format: biochemical. For orientation: Time-resolved FRET reads energy transfer from a long-lived donor to a nearby acceptor.

Sequence of Axl kinase (P30530 26-894): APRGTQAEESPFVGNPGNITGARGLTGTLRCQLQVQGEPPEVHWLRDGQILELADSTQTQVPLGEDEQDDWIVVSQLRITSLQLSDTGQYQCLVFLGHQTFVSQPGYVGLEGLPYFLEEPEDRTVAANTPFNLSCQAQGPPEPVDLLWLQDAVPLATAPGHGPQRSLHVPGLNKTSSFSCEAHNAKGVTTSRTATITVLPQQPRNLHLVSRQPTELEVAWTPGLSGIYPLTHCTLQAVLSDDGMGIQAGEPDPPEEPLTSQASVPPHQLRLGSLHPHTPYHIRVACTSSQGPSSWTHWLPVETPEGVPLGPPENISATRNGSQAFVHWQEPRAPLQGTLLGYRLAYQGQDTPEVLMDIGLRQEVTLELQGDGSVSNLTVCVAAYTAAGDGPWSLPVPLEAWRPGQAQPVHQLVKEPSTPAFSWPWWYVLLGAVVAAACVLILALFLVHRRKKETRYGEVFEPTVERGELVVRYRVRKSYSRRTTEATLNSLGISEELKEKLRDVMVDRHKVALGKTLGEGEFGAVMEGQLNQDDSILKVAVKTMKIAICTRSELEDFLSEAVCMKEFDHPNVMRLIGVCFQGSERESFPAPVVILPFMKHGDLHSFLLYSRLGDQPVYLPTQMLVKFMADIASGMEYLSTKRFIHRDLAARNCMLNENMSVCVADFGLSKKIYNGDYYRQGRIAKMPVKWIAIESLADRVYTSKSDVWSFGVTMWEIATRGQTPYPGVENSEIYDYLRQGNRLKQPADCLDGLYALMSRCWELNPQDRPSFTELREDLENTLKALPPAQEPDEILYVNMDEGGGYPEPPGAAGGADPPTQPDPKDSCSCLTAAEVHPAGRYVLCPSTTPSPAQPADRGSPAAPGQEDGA
Sequence of RET (P07949 29-1114): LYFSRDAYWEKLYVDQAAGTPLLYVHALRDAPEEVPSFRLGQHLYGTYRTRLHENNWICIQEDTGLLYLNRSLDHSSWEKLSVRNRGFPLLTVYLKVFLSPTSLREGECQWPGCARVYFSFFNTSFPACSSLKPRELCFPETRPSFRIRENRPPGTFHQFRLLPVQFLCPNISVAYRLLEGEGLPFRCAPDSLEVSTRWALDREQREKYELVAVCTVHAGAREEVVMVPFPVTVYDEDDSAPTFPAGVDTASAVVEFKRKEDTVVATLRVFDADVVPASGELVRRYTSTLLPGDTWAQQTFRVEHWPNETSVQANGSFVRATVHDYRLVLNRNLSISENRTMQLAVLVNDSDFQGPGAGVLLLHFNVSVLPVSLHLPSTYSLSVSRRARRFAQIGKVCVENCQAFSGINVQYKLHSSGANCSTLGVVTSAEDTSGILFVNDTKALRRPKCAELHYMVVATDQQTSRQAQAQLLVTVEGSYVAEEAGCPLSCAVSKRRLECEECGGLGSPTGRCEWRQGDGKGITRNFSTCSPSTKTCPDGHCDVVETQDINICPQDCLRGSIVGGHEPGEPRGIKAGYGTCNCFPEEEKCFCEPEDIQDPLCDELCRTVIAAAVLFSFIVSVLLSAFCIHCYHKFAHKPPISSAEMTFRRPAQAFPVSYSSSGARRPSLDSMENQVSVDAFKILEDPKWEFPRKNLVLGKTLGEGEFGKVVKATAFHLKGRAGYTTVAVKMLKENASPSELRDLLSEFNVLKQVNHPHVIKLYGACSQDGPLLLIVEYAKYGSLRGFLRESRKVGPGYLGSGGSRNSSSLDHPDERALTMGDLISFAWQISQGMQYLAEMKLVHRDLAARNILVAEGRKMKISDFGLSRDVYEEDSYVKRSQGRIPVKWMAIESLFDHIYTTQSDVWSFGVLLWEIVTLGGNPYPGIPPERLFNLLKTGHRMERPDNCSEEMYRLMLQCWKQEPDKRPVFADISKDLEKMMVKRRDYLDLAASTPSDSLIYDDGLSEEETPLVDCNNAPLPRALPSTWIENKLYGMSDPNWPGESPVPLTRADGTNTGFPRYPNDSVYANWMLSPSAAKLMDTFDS
Sequence of c-Met (h) (P08581 25-1390): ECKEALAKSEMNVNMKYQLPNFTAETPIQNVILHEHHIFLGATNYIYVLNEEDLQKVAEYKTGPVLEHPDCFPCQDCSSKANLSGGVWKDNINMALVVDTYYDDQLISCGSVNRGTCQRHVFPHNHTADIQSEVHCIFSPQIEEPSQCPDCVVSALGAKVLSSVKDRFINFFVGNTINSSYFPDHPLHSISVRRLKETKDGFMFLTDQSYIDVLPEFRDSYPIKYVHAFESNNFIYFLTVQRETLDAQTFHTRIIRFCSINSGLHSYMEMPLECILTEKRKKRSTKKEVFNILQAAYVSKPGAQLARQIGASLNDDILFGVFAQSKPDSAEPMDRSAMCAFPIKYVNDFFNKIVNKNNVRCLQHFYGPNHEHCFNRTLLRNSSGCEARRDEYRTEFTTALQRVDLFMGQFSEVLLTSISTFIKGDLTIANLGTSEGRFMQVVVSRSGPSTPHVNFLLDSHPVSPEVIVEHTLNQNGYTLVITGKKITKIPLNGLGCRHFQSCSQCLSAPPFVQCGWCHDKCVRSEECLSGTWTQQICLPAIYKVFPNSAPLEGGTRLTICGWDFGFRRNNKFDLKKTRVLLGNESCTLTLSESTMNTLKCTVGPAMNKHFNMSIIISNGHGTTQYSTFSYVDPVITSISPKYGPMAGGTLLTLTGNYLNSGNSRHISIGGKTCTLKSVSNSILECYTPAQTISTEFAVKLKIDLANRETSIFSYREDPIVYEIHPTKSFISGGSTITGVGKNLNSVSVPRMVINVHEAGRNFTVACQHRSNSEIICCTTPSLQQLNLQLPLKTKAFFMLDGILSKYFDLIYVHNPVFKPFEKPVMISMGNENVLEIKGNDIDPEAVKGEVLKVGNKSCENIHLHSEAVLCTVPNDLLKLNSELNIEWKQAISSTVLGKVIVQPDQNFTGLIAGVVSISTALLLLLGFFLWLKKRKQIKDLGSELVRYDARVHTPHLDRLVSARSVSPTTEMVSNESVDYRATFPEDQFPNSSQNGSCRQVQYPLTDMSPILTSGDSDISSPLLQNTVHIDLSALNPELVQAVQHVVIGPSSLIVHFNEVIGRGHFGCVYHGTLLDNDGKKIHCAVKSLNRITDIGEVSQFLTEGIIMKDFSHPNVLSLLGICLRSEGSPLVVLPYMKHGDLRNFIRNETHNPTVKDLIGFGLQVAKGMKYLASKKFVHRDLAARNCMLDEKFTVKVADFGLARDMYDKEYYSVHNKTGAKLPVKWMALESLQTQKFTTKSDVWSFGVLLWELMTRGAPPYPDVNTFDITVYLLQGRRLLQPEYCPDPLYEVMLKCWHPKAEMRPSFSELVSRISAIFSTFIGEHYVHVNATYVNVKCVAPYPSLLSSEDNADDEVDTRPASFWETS

`CC(C)(O)COc1ccc2c(Oc3ccc(Nc4nccc5[nH]cc(-c6ccc(F)cc6)c(=O)c45)cc3F)ccnc2c1` [Example 4, 5-((3-fluoro-4-((7-(2-hydroxy-2-methylpropoxy)quinolin-4-yl)oxy)phenyl)amino)-3-(4-fluorophenyl)-1,6-naphthyridin-4(1H)-one]: the 50% inhibitory concentration (IC50) against Axl kinase was found to be 15.7 nM. Also, half-maximal inhibition against RET (IC50) required 62 nM. In data set [1] (5 mg/kg i.g.), this molecule came in with a CL of 0.12 L/h/kg and a Vz of 1.46 L/kg. For the same molecule, in data set [1] (rat, plasma, iv, 1 mg/kg i.v.), the AUC(0-t) worked out at 11500 ng·h/mL, the Cmax was determined as 10800 ng/mL, the clearance is 0.5 mL/min/kg and the half-life is 598 min. Besides, the Vd in data set [1] (rat, plasma, iv, 1 mg/kg i.v., read-out: Vz) was determined as 0.47 L/kg. The bioavailability in data set [1] (rat, plasma, oral, 5 mg/kg i.g. vs 1 mg/kg i.v., read-out: F (absolute bioavailability)) amounted to 71.8%. Also, in data set [1] (rat, plasma, po, 5 mg/kg i.g.), the AUC(0-t) stood at 41300 ng·h/mL, the Cmax was 4310 ng/mL and the half-life is 502 min. In the data set with U87MG tumor (3 mg/kg p.o. QD), the “Tumor growth inhibition rate, % TGI” value amounted to 87.0%. In addition, the “Tumor growth inhibition rate, % TGI” value in the data set with U87MG tumor (10 mg/kg p.o. QD) amounted to 105.9%. The “Regression of tumor (tumor regression rate)” value with U87MG tumor (6 animals per group) is “is 100% (6/6)”.

With `CC(C)(O)COc1ccc2c(Oc3ccc(Nc4nccc5[nH]cc(-c6ccccc6)c(=O)c45)cc3F)ccnc2c1` [Example 7, 5-((3-fluoro-4-((7-(2-hydroxy-2-methylpropoxy)quinolin-4-yl)oxy)phenyl)amino)-3-phenyl-1,6-naphthyridin-4(1H)-one], the half-maximal inhibitory concentration (IC50) against c-Met (h) was determined as 7.4 nM; against Axl kinase it was 14.9 nM; on RET it was 53 nM.

One may read the IC50 as the midpoint of a concentration-inhibition curve. As a reminder, the Vz is the apparent volume that relates the amount in the body to the concentration in plasma or blood. In general, AUC(0-t) refers to exposure summed from dosing to a finite time, without extrapolation to infinity. Lower therefore signals low exposure. What is called Cmax is the highest concentration seen after dosing. One may read the clearance as the rate of elimination divided by the concentration. Lower therefore signals a low capacity for elimination. Usually half-life stands for how long it takes for the measured level to halve. By bioavailability is commonly meant the share of a dose that reaches the circulation, judged against a reference dose that is usually intravenous.
